The record followed here is publication PMC7320180, “Hydroxamic acid derivatives as HDAC1, HDAC6 and HDAC8 inhibitors with antiproliferative activity in cancer cell lines” (Scientific Reports, 2020).

Where two headings read alike, the source gives them in different places. Some results are limits rather than exact numbers.

Holding throughout (type): cell-based
For one test, the system named is HepG2 cells. The experiment in a line: MTT cytotoxicity test, HepG2. The settings on record: Homo sapiens; for inhibition at 50 µM: HepG2; for IC50: HepG2, 72 h. As for the experimental part:
(§1) All compounds were evaluated in triplicate using six points, 1/3 dilutions, with the highest concentration of 50 µM. The triplicate measurements were placed in three different 96-plates, and 1% DMSO was used as a negative control.
(§2) The first sets of […] (GH38, GH18, GH27, FH38, FH18, […] and FH37) were evaluated in different cancer cell lines: HepG2, MCF-7, SH-SY5Y, MIA PaCa-2, and […]. Furthermore, the second series of eight compounds were evaluated using seven cell lines: SH-SY5Y which is a neuroblastoma cell line; HepG2, a hepatocellular carcinoma cell line; MIA PaCa-2, a human pancreatic carcinoma cell line; MCF-7, a breast cancer cell line; HCC1954, a basal-Her2+ breast carcinoma cell line; RCC4-VA, a renal carcinoma cell line with a VHL mutation; and RCC4-VHL, a renal carcinoma cell without the VHL mutation (wild type). The cells used were seeded in 96-well plates and left for 24 h (5% CO2 and 90% humidity, 50000 cells/well) and incubated for 3 days to study the cytotoxicity.
(In general: Tetrazolium dyes change colour on reduction, which living cells bring about.)

In the next test the test system is MCF-7 cells. The experiment in a line: MTT cytotoxicity test, MCF-7. The settings on record: Homo sapiens; for inhibition at 50 µM: MCF7; for IC50: MCF7, 72 h. The procedure: as §1, §2
The next test concerns MIA PaCa-2 cells. In words: MTT cytotoxicity test, MIA PaCa-2. The settings on record: Homo sapiens; for inhibition at 50 µM: MIA PaCa-2; for IC50: MIA PaCa-2, 72 h. As for the experimental part: as §1, §2
The next test concerns RCC4-VHL cells. In words: MTT cytotoxicity test, RCC4-VHL. The settings on record: Homo sapiens, 72 h, 3 days. The procedure:
as §1, §2

In the next test the test system is RCC4-VA cells. In words: MTT cytotoxicity test, RCC4-VA. The settings on record: 72 h, 3 days. The procedure: as §1, §2
Another test deals with SH-SY5Y cells. In words: MTT cytotoxicity test, SH-SY5Y. The settings on record: Homo sapiens, 72 h, 3 days. As for the experimental part: as §1, §2
In the next test the test system is HCC1954 cells. In words: MTT cytotoxicity test, HCC1954. The settings on record: Homo sapiens, HCC1954, 72 h, 3 days. The procedure: as §1, §2
[1] abbreviates: MTT, 3 days, read-out: IC50 (µM) HepG2.
The mark [2] stands for this setting: MTT, 3 days, read-out: IC50 (µM) MCF-7.
[3] abbreviates: MTT, 3 days, read-out: IC50 (µM) MIA PaCa-2.

On to `Cc1ccc(C(=O)N[C@@H](Cc2ccccc2)C(=O)NO)cc1` [FH18, (S)-N-(1-(hydroxyamino)-1-oxo-3-phenylpropan-2-yl)-4-methylbenzamide], for which the inhibition (usually the relative decrease from the control value, in per cent) at 50 µM in the test on HepG2 cells worked out at 5.52%; in the test on MCF-7 cells, 41.2%; in the test with MIA PaCa-2 cells it was 0.05%. Also, the IC50 in the test on HepG2 cells (read-out: IC50 HepG2), in the test with MCF-7 cells (read-out: IC50 MCF-7) and in the test on MIA PaCa-2 cells (read-out: IC50 MIA PaCa-2) was over 50 µM throughout.

Consider `CCCCc1ccc(C(=O)N[C@@H](Cc2ccccc2)C(=O)NO)cc1` [FH27, (S)-4-butyl-N-(1-(hydroxyamino)-1-oxo-3-phenylpropan-2-yl)benzamide], for which the inhibition at 50 µM in the test on HepG2 cells amounted to 35.4%; in the test on MCF-7 cells, 37.6%; in the test with MIA PaCa-2 cells it was 2.82%. Moreover, the IC50 in the test on HepG2 cells (read-out: IC50 HepG2), in the test with MCF-7 cells (read-out: IC50 MCF-7) and with MIA PaCa-2 cells (read-out: IC50 MIA PaCa-2) was over 50 µM throughout.

For `CCCC(CCC)C(=O)N[C@@H](Cc1ccccc1)C(=O)NO` [FH37, (S)-N-(1-(hydroxyamino)-1-oxo-3-phenylpropan-2-yl)-2-propylpentanamide], the inhibition at 50 µM in the test on HepG2 cells amounted to 48.6%; in the test on MCF-7 cells, 49.1%; in the test on MIA PaCa-2 cells it was 7.47%. In addition, the IC50 in the test with HepG2 cells (read-out: IC50 HepG2), in the test with MCF-7 cells (read-out: IC50 MCF-7) and in the test on MIA PaCa-2 cells (read-out: IC50 MIA PaCa-2) was over 50 µM in each case.

For `O=C(N[C@@H](Cc1ccccc1)C(=O)NO)c1ccccc1` [FH38, (S)-N-(1-(hydroxyamino)-1-oxo-3-phenylpropan-2-yl)benzamide], the inhibition at 50 µM in the test with HepG2 cells worked out at 14.1%; in the test on MCF-7 cells, 21%; in the test with MIA PaCa-2 cells it was 0.43%. The IC50 in the test on HepG2 cells (read-out: IC50 HepG2), with MCF-7 cells (read-out: IC50 MCF-7) and in the test on MIA PaCa-2 cells (read-out: IC50 MIA PaCa-2) was over 50 µM throughout.

`Cc1ccc(C(=O)NCC(=O)NO)cc1` [GH18, N-(2-(hydroxyamino)-2-oxoethyl)-4-methyl benzamide]: the inhibition at 50 µM in the test on HepG2 cells is 3.08%; with MCF-7 cells, 17.2%; in the test with MIA PaCa-2 cells it was 4.44%. Also, the IC50 in the test with HepG2 cells (read-out: IC50 HepG2), in the test on MCF-7 cells (read-out: IC50 MCF-7) and in the test on MIA PaCa-2 cells (read-out: IC50 MIA PaCa-2) was over 50 µM throughout.

For the compound `CCCCc1ccc(C(=O)NCC(=O)NO)cc1` [GH27, 4-butyl-N-(2-(hydroxyamino)-2-oxoethyl)benzamide], the values for the inhibition at 50 µM in the test with HepG2 cells, in the test with MCF-7 cells and with MIA PaCa-2 cells were 1.38%, 40.4% and 10.7%, respectively. Also, the IC50 with HepG2 cells (read-out: IC50 HepG2), with MCF-7 cells (read-out: IC50 MCF-7) and in the test with MIA PaCa-2 cells (read-out: IC50 MIA PaCa-2) was over 50 µM throughout.

In the case of `O=C(CNC(=O)c1ccccc1)NO` [GH38, N-(2-(hydroxyamino)-2-oxoethyl)benzamide], the results for the inhibition at 50 µM with HepG2 cells, in the test on MCF-7 cells and in the test on MIA PaCa-2 cells were 1.01%, 16.1% and 0.18%, respectively. Moreover, the IC50 in the test with HepG2 cells (read-out: IC50 HepG2), with MCF-7 cells (read-out: IC50 MCF-7) and with MIA PaCa-2 cells (read-out: IC50 MIA PaCa-2) was over 50 µM each time.

Regarding `CCCCc1ccc(C(=O)N[C@@H](Cc2ccc(O)cc2)C(=O)NO)cc1` [YSL-99, (S)-4-butyl-N-(1-(hydroxyamino)-3-(4-hydroxyphenyl)-1-oxopropan-2-yl)benzamide], the IC50 (in general, the concentration at which inhibition is half-maximal) is 30.9 µM in the test on HepG2 cells (setting [1]); over 50 µM in the test on RCC4-VHL cells; 8.96 µM with MCF-7 cells (setting [2]); over 50 µM in the test with RCC4-VA cells; 36.2 µM in the test on SH-SY5Y cells; over 50 µM in the test on MIA PaCa-2 cells (setting [3]). The compound also came in with an IC50 in the test on HCC1954 cells of 42.9 µM.

As to `CCCCc1ccc(C(=O)N[C@H](Cc2ccccc2)C(=O)NO)cc1` [YSL-106, (R)-4-butyl-N-(1-(hydroxyamino)-1-oxo-3-phenylpropan-2-yl)benzamide], the IC50 was found to be 11.6 µM in the test on HepG2 cells (setting [1]); 21.1 µM in the test with RCC4-VHL cells; 4.94 µM with MCF-7 cells (setting [2]); 12.9 µM in the test with RCC4-VA cells; 18.9 µM with SH-SY5Y cells; 21.6 µM with MIA PaCa-2 cells (setting [3]). Besides, half-maximal inhibition in the test with HCC1954 cells (IC50) was put at 26.1 µM.

Turning to `CCCCc1ccc(C(=O)N[C@@H](Cc2ccc3ccccc3c2)C(=O)NO)cc1` [YSL-112, (S)-4-butyl-N-(1-(hydroxyamino)-3-(naphthalen-2-yl)-1-oxopropan-2-yl)benzamide], the IC50 in the test with HepG2 cells (setting [1]) was 10.8 µM; in the test on RCC4-VHL cells, 46.5 µM; with MCF-7 cells (setting [2]), 7.27 µM; with RCC4-VA cells, 31.9 µM; with SH-SY5Y cells, 21.4 µM; in the test with MIA PaCa-2 cells (setting [3]), over 50 µM. The same compound yielded an IC50 in the test with HCC1954 cells of 7.62 µM.

In the case of `CCCCc1ccc(C(=O)N[C@@H](Cc2ccc(F)cc2)C(=O)NO)cc1` [YSL-116, (S)-4-butyl-N-(3-(4-fluorophenyl)-1-(hydroxyamino)-1-oxopropan-2-yl)benzamide], the IC50 is 18 µM with HepG2 cells (setting [1]); 44.2 µM in the test with RCC4-VHL cells; 27.9 µM in the test with MCF-7 cells (setting [2]); 38.9 µM with RCC4-VA cells; 19.6 µM with SH-SY5Y cells; over 50 µM in the test with MIA PaCa-2 cells (setting [3]). The compound further displayed an IC50 in the test with HCC1954 cells of 18 µM.

On to `CCCCc1ccc(C(=O)N[C@@H](Cc2ccc(I)cc2)C(=O)NO)cc1` [YSL-121, (S)-4-butyl-N-(1-(hydroxyamino)-3-(4-iodophenyl)-1-oxopropan-2-yl)benzamide], for which the IC50 with HepG2 cells (setting [1]) was 41.1 µM; in the test on RCC4-VHL cells it was over 50 µM; with MCF-7 cells (setting [2]), over 50 µM; in the test on RCC4-VA cells, over 50 µM; in the test on SH-SY5Y cells, 1.41 µM; in the test with MIA PaCa-2 cells (setting [3]) it was over 50 µM. 8.49 µM corresponded to half-maximal inhibition with HCC1954 cells (IC50).

With `CCCCc1ccc(C(=O)N[C@@H](Cc2ccc([N+](=O)[O-])cc2)C(=O)NO)cc1` [YSL-125, (S)-4-butyl-N-(1-(hydroxyamino)-3-(4-nitrophenyl)-1-oxopropan-2-yl)benzamide], the IC50 with HepG2 cells (setting [1]) was found to be 15.7 µM; with RCC4-VHL cells, 8.02 µM; with MCF-7 cells (setting [2]), 16.6 µM; in the test with RCC4-VA cells, 10.5 µM; in the test with SH-SY5Y cells, 6.5 µM; in the test on MIA PaCa-2 cells (setting [3]), 42.5 µM. In the test with HCC1954 cells, this compound had an IC50 of 14.8 µM.
